For 3 molecules, mutagenic call results are on record in PubChem BioAssay AID1259407 (Chemical Carcinogenesis Research Information System (CCRIS), 2018).

Molecules are shown by their SMILES. Activity calls are given as the source filed them. The rule behind the calls is not given here.

The series concerns CCRIS mutagenicity, Ames/micronucleus/aberration tests. Nature of the series: CCRIS mutagenicity studies.
Where [1] appears, read: Test System: AMES SALMONELLA TYPHIMURIUM, Strain/Indicator: TA98, Metabolic Activation: NONE, Method: PREINCUBATION
The mark [2] stands for this setting: Test System: AMES SALMONELLA TYPHIMURIUM, Strain/Indicator: TA100, Metabolic Activation: NONE, Method: PREINCUBATION
Where [3] appears, read: Test System: AMES SALMONELLA TYPHIMURIUM, Strain/Indicator: TA1535, Metabolic Activation: NONE, Method: PREINCUBATION
Setting [4] is: Test System: AMES SALMONELLA TYPHIMURIUM, Strain/Indicator: TA1537, Metabolic Activation: NONE, Method: PREINCUBATION

On to `COc1ccc(N=[N+]([O-])c2ccc(OC)cc2)cc1`, for which the mutagenic call is, setting by setting: (Test System: AMES SALMONELLA TYPHIMURIUM, Strain/Indicator: TA97, Metabolic Activation: HAMSTER, LIVER, S-9, AROCLOR 1254 (5%), Method: PREINCUBATION) “inactive; negative”; (Test System: AMES SALMONELLA TYPHIMURIUM, Strain/Indicator: TA97, Metabolic Activation: HAMSTER, LIVER, S-9, AROCLOR 1254 (10 OR 30%), Method: PREINCUBATION) “active; positive”; (Test System: AMES SALMONELLA TYPHIMURIUM, Strain/Indicator: TA97, Metabolic Activation: NONE, Method: PREINCUBATION) “inactive; negative”; (Test System: AMES SALMONELLA TYPHIMURIUM, Strain/Indicator: TA97, Metabolic Activation: RAT, LIVER, S-9, AROCLOR 1254 (5 OR 10%), Method: PREINCUBATION) “active; positive”; (Test System: AMES SALMONELLA TYPHIMURIUM, Strain/Indicator: TA97, Metabolic Activation: RAT, LIVER, S-9, AROCLOR 1254 (30%), Method: PREINCUBATION) “inactive; negative”; (Test System: AMES SALMONELLA TYPHIMURIUM, Strain/Indicator: TA98, Metabolic Activation: HAMSTER, LIVER, S-9, AROCLOR 1254 (30%), Method: PREINCUBATION) “inactive; negative”. For the same molecule, the mutagenic call by setting is: under setting [1], “inactive; negative”; (Test System: AMES SALMONELLA TYPHIMURIUM, Strain/Indicator: TA98, Metabolic Activation: RAT, LIVER, S-9, AROCLOR 1254 (30%), Method: PREINCUBATION) “inactive; negative”; (Test System: AMES SALMONELLA TYPHIMURIUM, Strain/Indicator: TA100, Metabolic Activation: HAMSTER, LIVER, S-9, AROCLOR 1254 (30%), Method: PREINCUBATION) “inactive; negative”; under setting [2], “inactive; negative”; (Test System: AMES SALMONELLA TYPHIMURIUM, Strain/Indicator: TA100, Metabolic Activation: RAT, LIVER, S-9, AROCLOR 1254 (30%), Method: PREINCUBATION) “inactive; negative”; (Test System: AMES SALMONELLA TYPHIMURIUM, Strain/Indicator: TA1535, Metabolic Activation: HAMSTER, LIVER, S-9, AROCLOR 1254 (30%), Method: PREINCUBATION) “inactive; negative”. Also, the mutagenic call by setting is: under setting [3], “inactive; negative”; (Test System: AMES SALMONELLA TYPHIMURIUM, Strain/Indicator: TA1535, Metabolic Activation: RAT, LIVER, S-9, AROCLOR 1254 (30%), Method: PREINCUBATION) “inactive; negative”; (Test System: AMES SALMONELLA TYPHIMURIUM, Strain/Indicator: TA1537, Metabolic Activation: HAMSTER, LIVER, S-9, AROCLOR 1254 (5 OR 10%), Method: PREINCUBATION) “inactive; negative”; (Test System: AMES SALMONELLA TYPHIMURIUM, Strain/Indicator: TA1537, Metabolic Activation: HAMSTER, LIVER, S-9, AROCLOR 1254 (30%), Method: PREINCUBATION) “active; positive”; under setting [4], “inactive; negative”.
Turning to `Nc1nc(-c2ccc([N+](=O)[O-])o2)cs1`, the mutagenic call (Test System: AMES SALMONELLA TYPHIMURIUM, Strain/Indicator: TA100, Metabolic Activation: RAT, LIVER, S-9, KC500 OR PHENOBARBITAL, Method: LIQUID SUSPENSION) was “active; positive” and the mutagenic call (Test System: E. COLI WP2, Strain/Indicator: WP2, Metabolic Activation: NONE, Method: SPOT) is “active; positive”.
As for `C#C[C@]1(OC(=O)CCCCCC)CC[C@H]2[C@@H]3CCC4=CC(=O)CC[C@@H]4[C@H]3CC[C@@]21C`, the mutagenic call was “inactive; negative” under setting [1]; “inactive; negative” (Test System: AMES SALMONELLA TYPHIMURIUM, Strain/Indicator: TA98, Metabolic Activation: NONE, Method: STANDARD PLATE); “inactive; negative” (Test System: AMES SALMONELLA TYPHIMURIUM, Strain/Indicator: TA98, Metabolic Activation: RAT, LIVER, S-9, AROCLOR 1254, Method: PREINCUBATION); “inactive; negative” (Test System: AMES SALMONELLA TYPHIMURIUM, Strain/Indicator: TA98, Metabolic Activation: RAT, LIVER, S-9, AROCLOR 1254, Method: STANDARD PLATE); “inactive; negative” under setting [2]; “inactive; negative” (Test System: AMES SALMONELLA TYPHIMURIUM, Strain/Indicator: TA100, Metabolic Activation: NONE, Method: STANDARD PLATE). Further, the mutagenic call is, setting by setting: (Test System: AMES SALMONELLA TYPHIMURIUM, Strain/Indicator: TA100, Metabolic Activation: RAT, LIVER, S-9, AROCLOR 1254, Method: PREINCUBATION) “inactive; negative”; (Test System: AMES SALMONELLA TYPHIMURIUM, Strain/Indicator: TA100, Metabolic Activation: RAT, LIVER, S-9, AROCLOR 1254, Method: STANDARD PLATE) “inactive; negative”; under setting [3], “inactive; negative”; (Test System: AMES SALMONELLA TYPHIMURIUM, Strain/Indicator: TA1535, Metabolic Activation: NONE, Method: STANDARD PLATE) “inactive; negative”; (Test System: AMES SALMONELLA TYPHIMURIUM, Strain/Indicator: TA1535, Metabolic Activation: RAT, LIVER, S-9, AROCLOR 1254, Method: PREINCUBATION) “inactive; negative”; (Test System: AMES SALMONELLA TYPHIMURIUM, Strain/Indicator: TA1535, Metabolic Activation: RAT, LIVER, S-9, AROCLOR 1254, Method: STANDARD PLATE) “inactive; negative”. For the same molecule, the mutagenic call by setting is: under setting [4], “inactive; negative”; (Test System: AMES SALMONELLA TYPHIMURIUM, Strain/Indicator: TA1537, Metabolic Activation: NONE, Method: STANDARD PLATE) “inactive; negative”; (Test System: AMES SALMONELLA TYPHIMURIUM, Strain/Indicator: TA1537, Metabolic Activation: RAT, LIVER, S-9, AROCLOR 1254, Method: PREINCUBATION) “inactive; negative”; (Test System: AMES SALMONELLA TYPHIMURIUM, Strain/Indicator: TA1537, Metabolic Activation: RAT, LIVER, S-9, AROCLOR 1254, Method: STANDARD PLATE) “inactive; negative”; (Test System: AMES SALMONELLA TYPHIMURIUM, Strain/Indicator: TA1538, Metabolic Activation: NONE, Method: PREINCUBATION) “inactive; negative”; (Test System: AMES SALMONELLA TYPHIMURIUM, Strain/Indicator: TA1538, Metabolic Activation: NONE, Method: STANDARD PLATE) “inactive; negative”. Moreover, the mutagenic call reads like this: (Test System: AMES SALMONELLA TYPHIMURIUM, Strain/Indicator: TA1538, Metabolic Activation: RAT, LIVER, S-9, AROCLOR 1254, Method: PREINCUBATION) “inactive; negative”; (Test System: AMES SALMONELLA TYPHIMURIUM, Strain/Indicator: TA1538, Metabolic Activation: RAT, LIVER, S-9, AROCLOR 1254, Method: STANDARD PLATE) “inactive; negative”.
